Structures can show the parent of a compound that is named as a salt.

This data set is described as follows: RP, Waters ACQUITY UPLC HSS T3, 150 × 2.1 mm, 1.8 µm, 45 °C, 0.6 mL/min, estimated dead time 0.55 min; A: water + 0.1% formic acid, pH 3; B: acetonitrile + 0.1% formic acid, pH 3; gradient (min/%B) 0/1 0.1/1 10/55 10.15/65 10.30/75 10.45/85 10.60/95 10.70/100 11/100 11.55/100 11.65/1 11.70/1 11.80/1 11.90/1 12/1 12.10/1 12.15/1 12.65/1. The conditions noted are these: stereoisomer not certain.
With `O=C(O)C1OC(Oc2c[nH]c3ccccc23)C(O)C(O)C1O` (stereo not given) [Indoxyl glucuronide], the LC retention time was 3.39 min.
The result for `O=S(=O)(O)Oc1c[nH]c2ccccc12` [Indoxyl sulfate] reads 3.4 min; that for `O=c1[nH]cnc2c1ncn2C1OC(CO)C(O)C1O` (stereo not given) [Inosine], 1.61 min; that for `CC(C)C(=O)NCC(=O)O` [Isobutyrylglycine], 2.07 min.
The result for `O=C(O)CC(C(=O)O)C(O)C(=O)O` (stereo not given) [Isocitric acid] reads 0.77 min; that for `CC(C)CC(=O)C(=O)O` [Ketoleucine], 3.52 min; that for `O=C1O[C@H]([C@@H](O)CO)C(O)=C1OS(=O)(=O)O` [L-Ascorbic acid 2-sulfate], 0.71 min.
The result for `O=C(O)CC(O)C(=O)O` (stereo not given) [Malic acid] reads 0.752 min.
As to `CC(CC(=O)O)C(=O)O` (stereo not given) [Methylsuccinic acid], the LC retention time was 2.19 min.
Regarding `CC(=O)NCCC(=O)NC(Cc1cnc[nH]1)C(=O)O` [N-Acetyl-L-carnosine], the LC retention time was 0.92 min.
To `CC(=O)NC(CC(=O)O)C(=O)O` (stereo not given) [N-Acetylaspartic acid] belongs 1 min; to `CC(=O)NC(CCC(N)=O)C(=O)O` (stereo not given) [N-Acetylglutamine], 0.978 min; to `CCC(C)C(NC(C)=O)C(=O)O` (stereo not given) [N-Acetylisoleucine], 4.03 min.
The result for `CC(=O)NC(Cc1ccccc1)C(=O)O` (stereo not given) [N-Acetylphenylalanine] reads 4.66 min; that for `CC(=O)NC(Cc1c[nH]c2ccccc12)C(=O)O` (stereo not given) [N-Acetyltryptophan], 4.96 min; that for `CC(=O)NC(Cc1ccc(O)cc1)C(=O)O` (stereo not given) [N-Acetyltyrosine], 2.97 min.
With `CC(C)CC(=O)NCC(=O)O` [N-Isovaleroylglycine], the LC retention time is 3.07 min.
To `CC(=O)NC(CCC(=O)O)C(=O)O` (stereo not given) [N-acetylglutamic acid] belongs 1.35 min.
The result for `CC(=O)NC(CCCN=C(N)N)C(=O)O` [Na-Acetyl-L-arginine] reads 0.91 min; that for `NC(Cc1ccc(OS(=O)(=O)O)cc1)C(=O)O` (stereo not given) [O-Sulfotyrosine], 1.5 min.
`O=C(O)c1cc(=O)[nH]c(=O)[nH]1` [Orotic acid]: the LC retention time was 0.81 min.
The result for `CC(C)(CO)C(O)C(=O)NCCC(=O)O` (stereo not given) [Pantothenic acid] reads 2.31 min.
For the compound `O=S(=O)(O)Oc1ccccc1` [Phenol sulfate], the LC retention time is 3.01 min.
Consider `O=C(O)CNC(=O)Cc1ccccc1` [Phenylacetylglycine], for which the LC retention time is 4.01 min.
Consider `NC(Cc1ccccc1)C(=O)O` (stereo not given) [Phenylalanine], for which the LC retention time is 2.05 min.
Consider `O=C(O)C(O)Cc1ccccc1` (stereo not given) [Phenyllactic acid], for which the LC retention time was 4.51 min.
To `O=C(O)CCCCCC(=O)O` [Pimelic acid] belongs 3.46 min; to `CC(O)C1CCC2C3CCC4CC(OC5OC(C(=O)O)C(O)C(O)C5O)CCC4(C)C3CCC12C` (stereo not given) [Pregnanediol-3-glucuronide], 9.23 min; to `CC(=O)C1CCC2C3CC=C4CC(OS(=O)(=O)O)CCC4(C)C3CCC12C` (stereo not given) [Pregnenolone sulfate], 9.81 min.
Take `O=C1CCC(C(=O)O)N1` (stereo not given) [Pyroglutamic acid]: the LC retention time is 1.25 min.
Take `NC(CCCCn1c(C=O)ccc1CO)C(=O)O` (stereo not given) [Pyrraline]: the LC retention time is 2.49 min.
In the case of `Cc1cc2nc3c(=O)[nH]c(=O)nc-3n(CC(O)C(O)C(O)CO)c2cc1C` (stereo not given) [Riboflavin], the LC retention time was 3.82 min.
The result for `O=C1NS(=O)(=O)c2ccccc21` [Saccharin] reads 2.7 min; that for `O=C(O)c1ccccc1O` [Salicylic acid], 5.48 min; that for `O=C(O)CNC(=O)c1ccccc1O` [Salicyluric acid], 4.39 min.
On to `O=C(O)CCCCCCC(=O)O` [Suberic acid], for which the LC retention time is 4.46 min.
On to `O=C(O)CCC(=O)O` [Succinic acid], for which the LC retention time is 1.37 min.
As to `O=C(O)CC(Nc1ncnc2c1ncn2C1OC(CO)C(O)C1O)C(=O)O` (stereo not given) [Succinyladenosine], the LC retention time is 2.31 min.
To `Nc1c(C(=O)NC(CC(=O)O)C(=O)O)ncn1C1OC(CO)C(O)C1O` (stereo not given) [Succinylaminoimidazole carboxamide riboside] belongs 1.65 min; to `OCC1OC(OC2(CO)OC(CO)C(O)C2O)C(O)C(O)C1O` (stereo not given) [Sucrose], 0.68 min; to `O=C(O)c1ccc(CO)o1` [Sumiki's acid], 2.1 min.
Regarding `CC(CCC(=O)NCCS(=O)(=O)O)C1CCC2C3CCC4CC(OS(=O)(=O)O)CCC4(C)C3CCC12C` (stereo not given) [Taurolithocholic acid 3-sulfate], the LC retention time was 8.93 min.
As to `Cn1c(=O)c2[nH]cnc2n(C)c1=O` [Theophylline], the LC retention time is 2.76 min.
To `Cc1ccc(C(C)C)c(OS(=O)(=O)O)c1` [Thymol Sulfate] belongs 7.37 min; to `CC=C(C)C(=O)NCC(=O)O` [Tiglylglycine], 2.92 min.
To `NC(Cc1ccc(O)cc1)C(=O)O` (stereo not given) [Tyrosine] belongs 1.38 min.
Consider `O=c1[nH]c(=O)c2[nH]c(=O)[nH]c2[nH]1` [Uric acid], for which the LC retention time was 1.12 min.
As to `O=c1ccn(C2OC(CO)C(O)C2O)c(=O)[nH]1` (stereo not given) [Uridine], the LC retention time was 1.38 min.
Turning to `COc1cc(C(O)C(=O)O)ccc1O` (stereo not given) [Vanillylmandelic acid], the LC retention time is 1.97 min.
The result for `O=c1[nH]c(=O)c2[nH]cnc2[nH]1` [Xanthine] reads 1.31 min; that for `O=c1[nH]c(=O)c2ncn(C3OC(CO)C(O)C3O)c2[nH]1` (stereo not given) [Xanthosine], 1.83 min; that for `O=C(O)/C=C/c1cccc(O)c1` [m-Coumaric acid], 4.88 min.
`Cc1ccc(OC2OC(C(=O)O)C(O)C(O)C2O)cc1` (stereo not given) [p-Cresol glucuronide]: the LC retention time is 4.3 min.
As to `Cc1ccc(OS(=O)(=O)O)cc1` [p-Cresol sulfate], the LC retention time was 4.2 min.
Consider `O=C(O)C(O)c1ccc(O)cc1` (stereo not given) [p-Hydroxymandelic acid], for which the LC retention time is 1.57 min.

These data come from the RepoRT retention time repository.
